Among the data in patent US8084621B2, “3-Pyrrolo[b]cyclohexylene-2-dihydroindolinone derivatives and uses thereof” (Jiangsu Simcere Pharmaceutical R&D Co. Ltd., priority 2006, dated 2011) are inhibition values, retold here.

What is called inhibition is how much of the control response was suppressed.

The test system of this assay is Human Colon Cancer Cell Line (CACO-2). As to the kind of experiment: Tumor cell proliferation assay (MTT), CACO-2. In kind it is cell-based. Particulars: concentration of 10^−5 mol/L, preliminary screening, 72 hours, read-out: Inhibition rate % CACO-2. The text has this:
The assay used generally is the blue tetrazolium bromide (MTT) method. […] The amount of formazan can be detected by the microplate reader through the absorption value at 570 nm. The amount of formazan product generated is proportional to the number of living cells in the sample, so the OD value may reflect the number of living cells and the ability of a test drug to inhibit or kill cells. The MTT assay may be used in determining the ability of different compounds of the present invention to inhibit one or more cancer cells proliferation. Similar assays can be designed along the same lines for any cancer cell using techniques well known in the art.
The assay used generally is the blue tetrazolium bromide (MTT) method. […] Intracellular purple formazan salt crystals can be solved in DMSO and the absorption value at 570 nm is detected by the microplate reader, then the number of living cells can be detected indirectly. So MTT assay may be used to determine the ability of a compound of the present invention to inhibit cell proliferation. Similar assays can be designed along the same lines for any cancer cell using techniques well known in the art.
2.2.10 Human Colon Cancer Cell Line (CACO-2)
The cell of 2.2.10 cultured in DMEM/High glucose medium containing 12% fetal bovine serum in the condition of 37° C., 5% CO2.
2.3.1 Cell seeding: Trypsinize the cell by 0.05% trypsin-EDTA and add RPMI 1640 medium (DMEM or 5A) containing 12% calf serum. Count the number, then dilute to 1.67×10^4/ml. Add 180 ul/well to the 96 well plate (3000 cells/well).
2.3.2 Culture: cells are incubated for 24 hours at 37° C. under 5% CO2.
2.3.3 Preliminary screening: The compounds are firstly diluted to 0.1 mol/L with DMSO, and then diluted to three concentrations of 10^−5 mol/L, 10^−6 mol/L and 10^−7 mol/L. Add 20 ul test compounds to the 96 well plate and incubate for 72 hours. Each group has three parallel wells and all experiments repeat three times. Each inhibition ratio is calculated, then an average value of three times is taken as the measured value. 2.3.4 Staining 2.3.4.1 Attached cell: add 20 ul/well MTT to the 96-well plates; incubate for 4 hours in the incubator. Pour out the culture medium in the well and add 100 ul/well DMSO. Shake the plate for 5 min. 2.3.4.2 Suspension cell: add 20 ul/well MTT to the 96-well plates; incubate for 4 hours in the incubator. Add 50 ul/well 20% SDS and incubate for overnight in the incubator. 2.3.5 Reading the plates: read the absorbance A570-A630 with the Infinite M200 microtiter plate reader. Calculate the inhibition ratio of the test compounds. 2.3.6 Secondary screening: the compounds whose inhibition ratio is greater than 50% at the concentrations of 10^−5 mol/L in the preliminary screening will be picked out for Secondary screening. Dilute these compounds to ten concentrations: 10^−5 mol/L, 0.5×10^−5 mol/L, 10^−6 mol/L, 0.8×10^−6 mol/L, 0.6×10^−6 mol/L, 0.4×10^−6 mol/L, 0.2×10^−6 mol/L, 10^−7 mol/L, 0.8×10^−7 mol/L and 0.4×10^−7 mol/L. Add 20 ul test compound solution to the 96 well plate and incubate for 48 hours. Each group has three parallel wells and all experiments repeat for three times. Read the plates and calculate the inhibition ratio according to the preliminary screening method. 2.3.7 Calculate the Inhibition Ratio of Cell Proliferation and the IC50
According to the inhibition ratio of cell proliferation at the different concentrations of the compound, inhibition ratio of 50% of the test compound is calculated through the logarithm of the concentration of the compound with the Logit [I] linear regression, and an average value of three times is taken as the measured value of a sample.
In the case of `CCN(CC)CCNC(=O)c1c(C)[nH]c2c1CCC/C2=C1/C(=O)Nc2ccc(F)cc21` [I-2, N-(2-(diethylamino)ethyl)-2-methyl-7-[1,2-dihydro-5-fluoro-2-oxo-3H-indol-(Z)-3-ylidene]-4,5,6,7-tetrahydro-1H-indole-3-carboxamide], the inhibition at 10 µM came to 43%.
The same measure for `Cc1[nH]c2c(c1C(=O)NCC(O)CN1CCCCC1)CCC/C2=C1/C(=O)Nc2ccc(F)cc21` (stereo not shown) [I-74, N-(2-hydroxy-3-(piperidin-1-yl)propyl)-2-methyl-7-[1,2-dihydro-5-fluoro-2-oxo-3H-indol-(Z)-3-ylidene]-4,5,6,7-tetrahydro-1H-indole-3-carboxamide]: 83.1%.
Turning to `CCN(CC)CCNC(=O)c1c(C)[nH]c2c1CCC/C2=C1/C(=O)Nc2ccccc21` [I-5, N-(2-(diethylamino)ethyl)-2-methyl-7-[1,2-dihydro-2-oxo-3H-indol-(Z)-3-ylidene]-4,5,6,7-tetrahydro-1H-indole-3-carboxamide], the inhibition at 10 µM stood at 44.1%.
Take `Cc1[nH]c2c(c1C(=O)NCCO)CCC/C2=C1/C(=O)Nc2ccccc21` [I-8, N-(2-hydroxyethyl)-2-methyl-7-[1,2-dihydro-2-oxo-3H-indol-(Z)-3-ylidene]-4,5,6,7-tetrahydro-1H-indole-3-carboxamide]: the inhibition at 10 µM turned out to be 17%.
`Cc1[nH]c2c(c1C(=O)NCCO)CCC/C2=C1/C(=O)Nc2ccc(F)cc21` [I-9, N-(2-hydroxyethyl)-2-methyl-7-[1,2-dihydro-5-fluoro-2-oxo-3H-indol-(Z)-3-ylidene]-4,5,6,7-tetrahydro-1H-indole-3-carboxamide]: the inhibition at 10 µM amounted to 18%.
As to `Cc1[nH]c2c(c1C(=O)NCC(O)CN1CCCCC1)CCC/C2=C1/C(=O)Nc2ccccc21` (stereo not shown) [I-73, N-(2-hydroxy-3-(piperidin-1-yl)propyl)-2-methyl-7-[1,2-dihydro-2-oxo-3H-indol-(Z)-3-ylidene]-4,5,6,7-tetrahydro-1H-indole-3-carboxamide], the inhibition at 10 µM turned out to be 44.4%.
Take `Cc1[nH]c2c(c1C(=O)N1CCN(C)CC1)CCC/C2=C1/C(=O)Nc2ccc(F)cc21` [I-14, 2-methyl-3-(4-methylpiperazine-1-carbonyl)-7-[1,2-dihydro-5-fluoro-2-oxo-3H-indol-(Z)-3-ylidene]-4,5,6,7-tetrahydro-1H-indole]: the inhibition at 10 µM is 2.36%.
